{"source": "patent US11242327B2", "about": "“Analgesic compounds” (RECURIUM IP HOLDINGS, LLC, priority 2017, dated 2022)", "key": {"male Sprague-Dawley rats [1]": {"test_system": "male Sprague-Dawley rats", "assay": "Spinal Nerve Ligation (SNL) Neuropathic Pain Test", "format": "in vivo", "conditions": "rat, oral; for 50% response threshold, 1 h: 1 h after administration; for 50% response threshold, 2 h: 2 h after administration; for 50% response threshold, 4 h: 4 h after administration", "method": "Neuropathy was induced in non-fasted male Sprague-Dawley rats weighing 75-100 g by surgically ligating the 4th and 5th lumbar spinal nerves (L4 and L5), a procedure also known as spinal nerve ligation (SNL). Animals were placed in individual acrylic chambers on a metal mesh surface and allowed to acclimate to their surroundings for a minimum of 15 minutes before testing. Mechanical sensitivity was assessed using 8 Semmes-Weinstein filaments (Stoelting©; Wood Dale, Ill., USA) with varying stiffness (0.4, 0.6, 1.0, 2.0, 4.0, 6.0, 8.0, and 15 g) according to an up-down method to determine 50% response thresholds. Each filament was presented perpendicular to the plantar surface with sufficient force to cause slight buckling against the paw and held for approximately 6 seconds or until a positive response is noted (paw sharply withdrawn). Testing was initiated with the 2.0 g filament. In the absence of a paw withdrawal response, the next stronger stimulus was presented. In the event of paw withdrawal, the next weaker stimulus was used. This process was repeated until 4 responses after the initial change in response (no response to positive response or positive response to no response) were obtained. […] The 50% response threshold was calculated using the formula: 50% response threshold (g)=(10^(Xf+kδ))/10,000;\nXf=value (in log units) of the final von Frey filament used;\nk=tabular value for the pattern of positive/negative responses (See Chaplan, et al. “Quantitative Assessment of Tactile Allodynia in the Rat Paw” J. Neurosci. Meth. 53.1 (1994): 56-63);\n[…] =mean difference (in log units) between stimuli.\nThe mean and standard error of the mean (SEM) were determined for each paw for each treatment group at each time point. Thresholds were determined prior to surgery and again 14 days later. After 14 days, test or control compounds were administered and thresholds were again determined 1, 2, and 4 hours after compound administration. Median response thresholds in compound-treated animals were compared to those in vehicle treated animals to determine anti-allodynic efficacy of test and control compounds. Test compounds were administered orally at concentrations of 10, 30 or 100 mg/kg and gabapentin was administered orally at a concentration of 100 mg/kg. The control group received the vehicle (sterile water). In Table 7, ‘A’ designates a 50% threshold of ≥8 grams, ‘B’ designates a 50% threshold of ≥6 and <8 grams, and ‘C’ designates a 50% threshold of <6 grams.\nThe results provided in Table 7 are for oral administration in rats."}, "Opiate κ": {"target": "Opiate κ (Homo sapiens, UniProt P41145)", "sequence (P41145 whole entry)": "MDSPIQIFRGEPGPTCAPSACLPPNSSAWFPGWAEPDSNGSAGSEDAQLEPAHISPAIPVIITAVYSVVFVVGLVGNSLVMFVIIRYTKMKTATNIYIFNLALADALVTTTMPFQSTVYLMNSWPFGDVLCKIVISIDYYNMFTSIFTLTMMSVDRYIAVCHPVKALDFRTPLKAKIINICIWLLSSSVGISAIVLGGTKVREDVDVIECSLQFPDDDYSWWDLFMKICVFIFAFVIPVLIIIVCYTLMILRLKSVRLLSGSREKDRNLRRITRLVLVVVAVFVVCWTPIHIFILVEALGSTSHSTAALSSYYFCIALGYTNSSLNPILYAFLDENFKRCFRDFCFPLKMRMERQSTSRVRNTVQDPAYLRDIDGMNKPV", "assay": "NSAIDS and Opioid Receptor Test: Opiate κ", "format": "binding", "conditions": "10 μM", "method": "(§1) Compounds were screened as DMSO solutions at 10 μM, 100 μM, or 200 μM and values represent percent inhibition of control-specific binding. […] As NSAID and opioid mechanisms of action are precluded, a person of ordinary skill in the art understands that undesirable side effects associated with inhibition of COX receptors in NSAIDs and activation of opiate receptors in opioids can be avoided by compounds described herein. Furthermore, opioids are known to lose their analgesic potency after to continued administration. (See Benyamin, et al. “Opioid Complications and Side Effects” Pain Physician 11 (2008): S105-S120). As the data indicates compounds described herein have a different mechanism action compared to opioids, a person of ordinary skill in the art would appreciate that compounds described herein would not be expected to lose their analgesic potency like opioids after continued admininistration."}, "male Sprague-Dawley rats [2]": {"test_system": "male Sprague-Dawley rats", "assay": "Osteoarthritis Pain Test (MIA, mechanical hyperalgesia)", "format": "in vivo", "conditions": "rat; for joint compression threshold, Day 3, 1 h: Day 3, 1 h post-dosing; for joint compression threshold, Day 3, 2 h: Day 3, 2 h post-dosing; for joint compression threshold, Day 3, 4 h: Day 3, 4 h post-dosing; for joint compression threshold, Day 6, 1 h: Day 6, 1 h post-dosing; for joint compression threshold, Day 6, 2 h: Day 6, 2 h post-dosing; for joint compression threshold, Day 6, 4 h: Day 6, 4 h post-dosing; for joint compression threshold, Day 0, 1 h: Day 0, 1 h post-dosing; for joint compression threshold, Day 0, 2 h: Day 0, 2 h post-dosing; for joint compression threshold, Day 0, 4 h: Day 0, 4 h post-dosing", "method": "Osteoarthritis pain was induced in non-fasted male Sprague-Dawley rats weighing 150-250 g by injecting 2 mg of monosodium iodoacetate (MIA) into the left knee joint. Mechanical hyperalgesia was measured using a digital Randall-Selitto device (dRS; IITC Life Sciences©; Woodland Hills, Calif.). Animals were allowed to acclimate to the testing room for a minimum of 15 minutes before testing. Animals were placed in a restraint sling that suspended the animal, leaving the hind limbs available for testing. The stimulus was applied to the knee joint by a blunt tip and pressure was applied gradually over approximately 10 seconds. Joint compression threshold values were recorded at the first observed nocifensive behavior (vocalization, struggle, or withdrawal). One reading per joint was taken at each time point, and a maximum stimulus cutoff of 500 grams was used to prevent injury to the animal. Mechanical hyperalgesia was assessed prior to MIA injection, and again 14 days later. After 14 days, test or control articles were administered once daily for 7 days with mechanical hyperalgesia assessed prior to dosing, 1, 2, and 4 hours post-dosing on days 0, 3, and 6. Test compounds were administered orally at concentrations of 3, 10, 30 or 100 mg/kg and celecoxib was administered orally at a concentration of 30 mg/kg. The control group received the vehicle (sterile water). After day 0, groups receiving the 100 mg/kg dose were reduced to a dose of 3 mg/kg. In Table 5, ‘A’ designates ≥375 grams of joint compression, ‘B’ designates ≥325 and <375 grams of joint compression, and ‘C’ designates <325 grams of joint compression.\nThe results provided in Table 5 are for oral administration in rats."}, "Opiate δ2": {"target": "Opiate δ2 (Homo sapiens, UniProt P41143)", "sequence (P41143 whole entry)": "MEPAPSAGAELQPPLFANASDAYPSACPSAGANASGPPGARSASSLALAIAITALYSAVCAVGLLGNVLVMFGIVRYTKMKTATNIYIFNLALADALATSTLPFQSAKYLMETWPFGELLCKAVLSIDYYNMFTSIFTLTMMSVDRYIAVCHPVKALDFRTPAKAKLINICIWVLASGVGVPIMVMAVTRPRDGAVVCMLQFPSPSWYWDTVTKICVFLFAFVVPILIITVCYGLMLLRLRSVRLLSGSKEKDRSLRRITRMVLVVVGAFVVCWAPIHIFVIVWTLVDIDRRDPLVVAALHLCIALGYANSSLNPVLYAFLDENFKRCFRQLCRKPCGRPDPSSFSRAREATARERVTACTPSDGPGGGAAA", "assay": "NSAIDS and Opioid Receptor Test: Opiate δ2", "format": "binding", "conditions": "10 μM", "method": "as §1"}, "[3]": {"conditions": "oral once daily, 3 mg/kg (group had 100 mg/kg on day 0)"}}}
{"smiles": "Cl.NC12CC(c3nc(C(F)(F)F)cs3)(C1)C2", "note": "[Compound 1, 3-(4-(Trifluoromethyl)thiazol-2-yl)bicyclo[1.1.1]pentan-1-amine hydrochloride]", "values": [{"measurement": "50% response threshold, 1 h", "setting": "male Sprague-Dawley rats [1]; 10 mg/kg", "result": "C (a 50% threshold of <6 grams)"}, {"measurement": "50% response threshold, 2 h", "setting": "male Sprague-Dawley rats [1]; 10 mg/kg", "result": "C (a 50% threshold of <6 grams)"}, {"measurement": "50% response threshold, 4 h", "setting": "male Sprague-Dawley rats [1]; 10 mg/kg", "result": "C (a 50% threshold of <6 grams)"}, {"measurement": "50% response threshold, 1 h", "setting": "male Sprague-Dawley rats [1]; 30 mg/kg", "result": "B (a 50% threshold of ≥6 and <8 grams)"}, {"measurement": "50% response threshold, 2 h", "setting": "male Sprague-Dawley rats [1]; 30 mg/kg", "result": "B (a 50% threshold of ≥6 and <8 grams)"}, {"measurement": "50% response threshold, 4 h", "setting": "male Sprague-Dawley rats [1]; 30 mg/kg", "result": "C (a 50% threshold of <6 grams)"}, {"measurement": "50% response threshold, 1 h", "setting": "male Sprague-Dawley rats [1]; 100 mg/kg", "result": "A (a 50% threshold of ≥8 grams)"}, {"measurement": "50% response threshold, 2 h", "setting": "male Sprague-Dawley rats [1]; 100 mg/kg", "result": "A (a 50% threshold of ≥8 grams)"}, {"measurement": "50% response threshold, 4 h", "setting": "male Sprague-Dawley rats [1]; 100 mg/kg", "result": "A (a 50% threshold of ≥8 grams)"}, {"measurement": "inhibition at 10 µM", "setting": "Opiate κ", "result": -4, "unit": "%"}, {"measurement": "joint compression threshold, Day 3, 1 h", "setting": "male Sprague-Dawley rats [2]; [3]", "result": "A (≥375 grams of joint compression)"}, {"measurement": "joint compression threshold, Day 3, 2 h", "setting": "male Sprague-Dawley rats [2]; [3]", "result": "A (≥375 grams of joint compression)"}, {"measurement": "joint compression threshold, Day 3, 4 h", "setting": "male Sprague-Dawley rats [2]; [3]", "result": "A (≥375 grams of joint compression)"}, {"measurement": "joint compression threshold, Day 6, 1 h", "setting": "male Sprague-Dawley rats [2]; [3]", "result": "A (≥375 grams of joint compression)"}, {"measurement": "joint compression threshold, Day 6, 2 h", "setting": "male Sprague-Dawley rats [2]; [3]", "result": "B (≥325 and <375 grams of joint compression)"}, {"measurement": "joint compression threshold, Day 6, 4 h", "setting": "male Sprague-Dawley rats [2]; [3]", "result": "A (≥375 grams of joint compression)"}, {"measurement": "joint compression threshold, Day 0, 1 h", "setting": "male Sprague-Dawley rats [2]; oral once daily, 10 mg/kg", "result": "B (≥325 and <375 grams of joint compression)"}, {"measurement": "joint compression threshold, Day 0, 2 h", "setting": "male Sprague-Dawley rats [2]; oral once daily, 10 mg/kg", "result": "C (<325 grams of joint compression)"}, {"measurement": "joint compression threshold, Day 0, 4 h", "setting": "male Sprague-Dawley rats [2]; oral once daily, 10 mg/kg", "result": "C (<325 grams of joint compression)"}, {"measurement": "joint compression threshold, Day 3, 1 h", "setting": "male Sprague-Dawley rats [2]; oral once daily, 10 mg/kg", "result": "B (≥325 and <375 grams of joint compression)"}, {"measurement": "joint compression threshold, Day 3, 2 h", "setting": "male Sprague-Dawley rats [2]; oral once daily, 10 mg/kg", "result": "B (≥325 and <375 grams of joint compression)"}, {"measurement": "joint compression threshold, Day 3, 4 h", "setting": "male Sprague-Dawley rats [2]; oral once daily, 10 mg/kg", "result": "B (≥325 and <375 grams of joint compression)"}, {"measurement": "joint compression threshold, Day 6, 1 h", "setting": "male Sprague-Dawley rats [2]; oral once daily, 10 mg/kg", "result": "B (≥325 and <375 grams of joint compression)"}, {"measurement": "joint compression threshold, Day 6, 2 h", "setting": "male Sprague-Dawley rats [2]; oral once daily, 10 mg/kg", "result": "B (≥325 and <375 grams of joint compression)"}, {"measurement": "joint compression threshold, Day 6, 4 h", "setting": "male Sprague-Dawley rats [2]; oral once daily, 10 mg/kg", "result": "B (≥325 and <375 grams of joint compression)"}, {"measurement": "joint compression threshold, Day 0, 1 h", "setting": "male Sprague-Dawley rats [2]; oral once daily, 30 mg/kg", "result": "B (≥325 and <375 grams of joint compression)"}, {"measurement": "joint compression threshold, Day 0, 2 h", "setting": "male Sprague-Dawley rats [2]; oral once daily, 30 mg/kg", "result": "B (≥325 and <375 grams of joint compression)"}, {"measurement": "joint compression threshold, Day 0, 4 h", "setting": "male Sprague-Dawley rats [2]; oral once daily, 30 mg/kg", "result": "B (≥325 and <375 grams of joint compression)"}, {"measurement": "joint compression threshold, Day 3, 1 h", "setting": "male Sprague-Dawley rats [2]; oral once daily, 30 mg/kg", "result": "A (≥375 grams of joint compression)"}, {"measurement": "joint compression threshold, Day 3, 2 h", "setting": "male Sprague-Dawley rats [2]; oral once daily, 30 mg/kg", "result": "A (≥375 grams of joint compression)"}, {"measurement": "joint compression threshold, Day 3, 4 h", "setting": "male Sprague-Dawley rats [2]; oral once daily, 30 mg/kg", "result": "B (≥325 and <375 grams of joint compression)"}, {"measurement": "joint compression threshold, Day 6, 1 h", "setting": "male Sprague-Dawley rats [2]; oral once daily, 30 mg/kg", "result": "A (≥375 grams of joint compression)"}, {"measurement": "joint compression threshold, Day 6, 2 h", "setting": "male Sprague-Dawley rats [2]; oral once daily, 30 mg/kg", "result": "B (≥325 and <375 grams of joint compression)"}, {"measurement": "joint compression threshold, Day 6, 4 h", "setting": "male Sprague-Dawley rats [2]; oral once daily, 30 mg/kg", "result": "B (≥325 and <375 grams of joint compression)"}, {"measurement": "joint compression threshold, Day 0, 1 h", "setting": "male Sprague-Dawley rats [2]; oral, 100 mg/kg", "result": "A (≥375 grams of joint compression)"}, {"measurement": "joint compression threshold, Day 0, 2 h", "setting": "male Sprague-Dawley rats [2]; oral, 100 mg/kg", "result": "A (≥375 grams of joint compression)"}, {"measurement": "joint compression threshold, Day 0, 4 h", "setting": "male Sprague-Dawley rats [2]; oral, 100 mg/kg", "result": "A (≥375 grams of joint compression)"}, {"measurement": "inhibition at 10 µM", "setting": "Opiate δ2", "result": 7, "unit": "%"}]}
